The text below walks through data of patent US20230295164A1, “COMPOUNDS HAVING ANTIBACTERIAL ACTIVITY” (The Trustees of Princeton University, priority 2020, published 2023).

Assay [1] concerns Acinetobacter baumannii, ATCC 17978. Briefly: MIC testing, broth microdilution in CAMHB. The format is cell-based. To be noted: 18-20 hr, lowest concentration that completely inhibits visible growth; for Compound MICs, Acinetobacter baumannii, ATCC 17978: 37° C. An outline of the steps: (§1)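 Broth microdilution in CAMHB: inoculum from a 0.5 McFarland saline suspension diluted 200-fold, with compounds added from 3-fold serial dilutions in DMSO. Plates were incubated at 37 °C, 85% humidity for 18-20 hr, and MIC was scored visually by presence or absence of growth.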
In general terms: Broth dilution looks for growth in wells or tubes with falling amounts of substance.

The test system of assay [2] is Enterococcus faecalis, ATCC 51575. Description: MIC testing, broth microdilution in CAMHB. The format is cell-based. To be noted: 18-20 hr, lowest concentration that completely inhibits visible growth; for Compound MICs, Enterococcus faecalis, ATCC 51575: 37° C. An outline of the steps: as §1
For assay [3], the system named is Escherichia coli, ATCC BAA-198. Description: MIC testing, broth microdilution in CAMHB. The settings on record: 18-20 hr, lowest concentration that completely inhibits visible growth; for Compound MICs, Escherichia coli, ATCC BAA-198: 37° C. The format is cell-based. An outline of the steps:
as §1

Assay [4] concerns Salmonella typhimurium, CMCC 50115. Briefly: MIC testing, broth microdilution in CAMHB. The format is cell-based. The settings on record: 37° C., 18-20 hr, lowest concentration that completely inhibits visible growth. An outline of the steps:
as §1

The test system of assay [5] is Staphylococcus aureus, NRS384. Briefly: MIC testing, broth microdilution in CAMHB. The format is cell-based. To be noted: 18-20 hr, lowest concentration that completely inhibits visible growth; for Compound MICs, Staphylococcus aureus, NRS384: 37° C. An outline of the steps:
as §1

In the next assay the test system is P. aeruginosa PA14. Briefly: MIC testing against P. aeruginosa PA14, same protocol. The format is cell-based, Pseudomonas aeruginosa. The settings on record: according to the protocol above. The procedure: For each strain to be tested, made fresh streaks onto CAMHA from −80° C. glycerol stocks. • CAMHB: Dissolved 22 g of the powder per 1 L of purified water. Mixed well. Autoclaved at 121° C. for 10 minutes. Stored at room temperature (RT) for no more than 1 week. • Saline: Dissolved 9 g of the powder per 1 L of purified water. Mixed well. Autoclaved at 121° C. for 30 minutes. Stored at room temperature (RT) for no more than 1 week. Prepared the stock solutions of the tested compounds. For compounds: • a) Dispensed 20 ul compound to the wells in column 1, and 20 ul DMSO to the wells in column 2 to 12; • b) Diluted the compounds by transferring 10 ul compounds from column 1 to 20 ul DMSO in column 2; mix with pipette. • c) Repeated until column 11 to get 3×serial dilutions. Column 12 was the DMSO control. A multichannel pipette was used to deliver 1 μl of the diluted compound into each well of the corresponding daughter plate. Scraped 4-8 single colonies from an agar plate into 5 ml saline in a 14 ml Falcon conical tube. Vortexed the tube to suspend the bacteria. Adjusted the turbidity to ˜0.2 (corresponding to 0.5 McFarland) with an Ultrospec 10 Cell density meter. The strain suspension was diluted 200-fold in CAMHB medium and dispense into a sterile reservoir. A multichannel pipette was then used to deliver 99 μl of the diluted inocula into each well of the corresponding daughter plate. Incubate the daughter plates at 37° C., 85% humidity for 18-20 hr. […] A magnifying mirror device was used for ease of scoring the presence or absence of growth in the wells. 96-well micro-plates were photographed. […]

Values after ≈ are worked out from the molar mass of the structure shown.

`Nc1nc(N)c2c(ccc3c2ccn3Cc2ccc(F)cc2)n1` [Compound 10]: the MIC turned out to be 0.79 µg/mL (≈ 2.57 µM) in assay [1] (Acinetobacter baumannii, ATCC17978, 37° C., read-out: Compound MICs, Acinetobacter baumannii, ATCC 17978); 0.01 µg/mL (≈ 0.0325 µM) in assay [2] (Enterococcus faecalis, ATCC51575, 37° C., read-out: Compound MICs, Enterococcus faecalis, ATCC 51575); 2.37 µg/mL (≈ 7.71 µM) in assay [3] (Escherichia coli, ATCCBAA198, 37° C., read-out: Compound MICs, Escherichia coli, ATCC BAA-198); 0.088 µg/mL (≈ 0.286 µM) in assay [4] (Salmonella enterica, read-out: Compound MICs, Salmonella typhimurium, CMCC 50115); 0.088 µg/mL (≈ 0.286 µM) in assay [5] (Staphylococcus aureus, NRS384, 37° C., read-out: Compound MICs, Staphylococcus aureus, NRS384); 25 µg/mL (≈ 81.3 µM) in the assay with P. aeruginosa PA14 (Pseudomonas aeruginosa, PA14, read-out: MICs against P. aeruginosa PA14).

In the case of `Nc1nc(N)c2c(ccc3c2ccn3-c2ccc(F)cc2)n1` [Compound 40], the “Compound MICs, Acinetobacter baumannii, ATCC 17978” value (“Compound MICs … ATCC 17978” below) in assay [1] was determined as 2.37 µg/mL. Also, the “Compound MICs, Enterococcus faecalis, ATCC 51575” value (from here on “Compound MICs … ATCC 51575”) in assay [2] turned out to be 0.09 µg/mL. Also, the “Compound MICs, Escherichia coli, ATCC BAA-198” value (shortened to “Compound MICs, Escherichia coli”) in assay [3] is 7.11 µg/mL. The “Compound MICs, Salmonella typhimurium, CMCC 50115” value (“Compound MICs … CMCC 50115” for short) in assay [4] was determined as 0.26 µg/mL. Also, the “Compound MICs, Staphylococcus aureus, NRS384” value (“Compound MICs … NRS384” for short) in assay [5] came to 0.26 µg/mL. Moreover, in the assay on P. aeruginosa PA14, the “MICs against P. aeruginosa PA14” value came to 45 µg/mL.

Turning to `Nc1nc(N)c2c(ccc3c2ccn3Cc2ccc(F)nc2)n1` [Compound 45], the “Compound MICs … ATCC 17978” value in assay [1] was determined as 2.37 µg/mL. The “Compound MICs … ATCC 51575” value in assay [2] turned out to be 0.01 µg/mL. Besides, the “Compound MICs, Escherichia coli” value in assay [3] amounted to 7.11 µg/mL. For the same compound, the “Compound MICs … CMCC 50115” value in assay [4] was 0.003 µg/mL. Besides, the “Compound MICs … NRS384” value in assay [5] came to 0.26 µg/mL. Further, the “MICs against P. aeruginosa PA14” value against P. aeruginosa PA14 is 6.3 µg/mL.

In the case of `Nc1nc(N)c2c(ccc3c2ccn3Cc2cccc(F)n2)n1` [Compound 48], the “Compound MICs … ATCC 17978” value in assay [1] was 0.79 µg/mL. Besides, the “Compound MICs … ATCC 51575” value in assay [2] was at most 0.001 µg/mL. In assay [3], the “Compound MICs, Escherichia coli” value came out at 7.11 µg/mL. Further, the “Compound MICs … CMCC 50115” value in assay [4] was found to be 0.003 µg/mL. Moreover, the “Compound MICs … NRS384” value in assay [5] was found to be 0.09 µg/mL. The “MICs against P. aeruginosa PA14” value against P. aeruginosa PA14 stood at 12.5 µg/mL.
